Reference: ChEMBL document CHEMBL1129630, “Synthesis and structure-activity relationships of retinoid X receptor selective diaryl sulfide analogs of retinoic acid” (J Med Chem, 1996)

System: HL-60
Assay: Induction of transglutaminase (TGase) activity in HL-60 cells
Details: Homo sapiens

- EC50: > 1000 nM
SMILES: C/C(=C\c1ccc(C(=O)O)cc1)c1ccc2c(c1)C(C)(C)CCC2(C)C
